Test results reported in patent US20060135773A1, “Trisubstituted nitrogen modulators of tyrosine phosphatases” (priority 2004, published 2006).
Where a name gives a salt, the structure may show the parent alone.

Target: T1, PTP-1B (Homo sapiens, UniProt P18031)
T1 construct: PTP-1B (purified, 1 mg/mL) as a 1:250 dilution
T1 sequence (P18031 1-321 limits assumed): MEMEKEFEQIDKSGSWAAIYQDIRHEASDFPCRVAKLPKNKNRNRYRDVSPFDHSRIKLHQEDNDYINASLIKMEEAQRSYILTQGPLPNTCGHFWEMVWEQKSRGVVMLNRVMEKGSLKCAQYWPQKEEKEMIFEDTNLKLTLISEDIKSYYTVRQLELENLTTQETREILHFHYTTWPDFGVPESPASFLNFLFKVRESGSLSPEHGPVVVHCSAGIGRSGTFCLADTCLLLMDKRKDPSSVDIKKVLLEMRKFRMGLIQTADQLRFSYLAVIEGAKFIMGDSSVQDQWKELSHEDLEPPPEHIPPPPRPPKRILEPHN
Experiment: pNPP tyrosine phosphatase inhibition assay, PTP-1B
Assay type: biochemical
Conditions: pNPP assay, PTP-1B; read-out: Activity Class (IC50 ranges)
In short: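 Test compounds were screened at two final levels, 31.3 and 10 µM, against 4 µg/mL purified PTP-1B. The substrate was 10 mM p-nitrophenyl phosphate, with incubation for 10 min at 30°C before a K2CO3 quench. Activity was taken from A405.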

IC50 [nM]	Compound
100 to 249	COc1ccccc1S(=O)(=O)N(Cc1ccc(Cl)c(Cl)c1)Cc1ccc(C(F)(F)P(=O)(O)O)c(Br)c1 [Compound 101, [(2-Bromo-4-{[(3,4-dichloro-benzyl)-(2-methoxy-benzenesulfonyl)-amino]-methyl}-phenyl)-difluoro-methyl]-phosphonic acid]
100 to 249	COc1ccccc1S(=O)(=O)N(Cc1ccc(-c2ccc(S(C)(=O)=O)cc2)cc1)Cc1ccc(C(F)(F)P(=O)(O)O)c(Cl)c1 [Compound 147, [(2-Chloro-4-{[(4′-methanesulfonyl-biphenyl-4-ylmethyl)-(2-methoxy-benzenesulfonyl)-amino]-methyl}-phenyl)-difluoro-methyl]-phosphonic acid]
250 to 499	COc1cccc(S(=O)(=O)N(Cc2ccc(C(F)(F)P(=O)(O)O)cc2)Cc2ccc(C(F)(F)P(=O)(O)O)cc2)c1 [Compound 86, [(4-{[[4-(Difluoro-phosphono-methyl)-benzyl]-(3-methoxy-benzenesulfonyl)-amino]-methyl}-phenyl)-difluoro-methyl]-phosphonic acid]
250 to 499	O=P(O)(O)C(F)(F)c1ccc(CN(Cc2ccc(Cl)c(Cl)c2)S(=O)(=O)c2ccccc2)cc1Br [Compound 68, [(4-{[Benzenesulfonyl-(3,4-dichloro-benzyl)-amino]-methyl}-2-bromo-phenyl)-difluoro-methyl]-phosphonic acid]
250 to 499	COC(=O)c1ccc(CN(Cc2ccc(C(F)(F)P(=O)(O)O)c(Br)c2)S(=O)(=O)c2ccccc2)cc1 [Compound 30, 4-({Benzenesulfonyl-[3-bromo-4-(difluoro-phosphono-methyl)-benzyl]-amino}-methyl)-benzoic acid methyl ester]
2500 to 25000	2,2-Dimethyl-propionic acid [(2-bromo-4-{[(4-methanesulfonyl-phenyl)-(2-methoxy-benzenesulfonyl)-amino]-methyl}-phenyl)-difluoro-methyl]-hydroxy-phosphinoyloxymethyl ester [Compound 228]
100 to 249	COc1ccccc1S(=O)(=O)N(Cc1ccc(C(F)(F)P(=O)(O)O)c(Cl)c1)Cc1ccccc1Br [Compound 178, [(4-{[(2-Bromo-benzyl)-(2-methoxy-benzenesulfonyl)-amino]-methyl}-2-chloro-phenyl)-difluoro-methyl]-phosphonic acid]
2500 to 25000	COC(=O)c1ccccc1S(=O)(=O)N(Cc1ccc(C(F)(F)P(=O)(O)O)cc1)Cc1ccc(C(F)(F)P(=O)(O)O)cc1 [Compound 92, 2-{Bis-[4-(difluoro-phosphono-methyl)-benzyl]-sulfamoyl}-benzoic acid methyl ester]
< 99	COc1ccccc1S(=O)(=O)N(Cc1ccc(-c2cccc(-c3nn[nH]n3)c2)cc1)Cc1ccc(C(F)(F)P(=O)(O)O)c(Cl)c1 [Compound 47, {[2-Chloro-4-({(2-methoxy-benzenesulfonyl)-[3′-(2H-tetrazol-5-yl)-biphenyl-4-ylmethyl]-amino}-methyl)-phenyl]-difluoro-methyl}-phosphonic acid]
> 25000	2,2-Dimethyl-propionic acid [(2-bromo-4-{[(4-methanesulfonyl-phenyl)-(2-methoxy-benzenesulfonyl)-amino]-methyl}-phenyl)-difluoro-methyl]-(2,2-dimethyl-propionyloxymethoxy)-phosphinoyloxymethyl ester [Compound 229]
> 25000	COc1ccccc1S(=O)(=O)N(Cc1ccc(C(=NO)C(=O)O)cc1)Cc1ccc(S(C)(=O)=O)cc1 [Compound 126, Hydroxyimino-(4-{[(4-methanesulfonyl-benzyl)-(2-methoxy-benzenesulfonyl)-amino]-methyl}-phenyl)-acetic acid]
100 to 249	COC(=O)c1ccc(-c2ccc(CN(Cc3ccc(C(F)(F)P(=O)(O)O)c(Cl)c3)S(=O)(=O)c3ccccc3OC)cc2)cc1F [Compound 174, 4′-{[[3-Chloro-4-(difluoro-phosphono-methyl)-benzyl]-(2-methoxy-benzenesulfonyl)-amino]-methyl}-3-fluoro-biphenyl-4-carboxylic acid methyl ester]
> 25000	COc1ccccc1S(=O)(=O)N(Cc1ccc(C=CC(=O)O)cc1)Cc1ccc(C=CC(=O)O)cc1 [Compound 132, 3-(4-{[[4-(2-Carboxy-vinyl)-benzyl]-(2-methoxy-benzenesulfonyl)-amino]-methyl}-phenyl)-acrylic acid]
250 to 499	O=P(O)(O)C(F)(F)c1ccc(CN(c2ccc(Cl)c(Cl)c2)S(=O)(=O)c2ccccc2)cc1Br [Compound 34, [(4-{[Benzenesulfonyl-(3,4-dichloro-phenyl)-amino]-methyl}-2-bromo-phenyl)-difluoro-methyl]-phosphonic acid]
100 to 249	O=P(O)(O)C(F)(F)c1ccc(CN(Cc2ccc(Cl)c(Cl)c2)S(=O)(=O)c2ccccc2Cl)cc1Br [Compound 82]
250 to 499	O=P(O)(O)C(F)(F)c1ccc(CN(Cc2ccc(C(F)(F)P(=O)(O)O)cc2)S(=O)(=O)c2ccc(Oc3ccccc3)cc2)cc1 [Compound 70, [(4-{[[4-(Difluoro-phosphono-methyl)-benzyl]-(4-phenoxy-benzenesulfonyl)-amino]-methyl}-phenyl)-difluoro-methyl]-phosphonic acid]
100 to 249	COc1ccccc1S(=O)(=O)N(Cc1ccc(C(F)(F)P(=O)(O)O)c(Br)c1)c1ccc(S(C)(=O)=O)cc1 [Compound 114, [(2-Bromo-4-{[(4-methanesulfonyl-phenyl)-(2-methoxy-benzenesulfonyl)-amino]-methyl}-phenyl)-difluoro-methyl]-phosphonic acid]
250 to 499	O=P(O)(O)C(F)(F)c1ccc(CN(Cc2ccc(C(F)(F)P(=O)(O)O)cc2)S(=O)(=O)c2ccccc2Br)cc1 [Compound 84, {[4-({(2-Bromo-benzenesulfonyl)-[4-(difluoro-phosphono-methyl)-benzyl]-amino}-methyl)-phenyl]-difluoro-methyl}-phosphonic acid]
250 to 499	O=P(O)(O)C(F)(F)c1ccc(CN(Cc2ccc(C(F)(F)P(=O)(O)O)c(Cl)c2)C2CCc3ccccc32)cc1Cl (centres unmarked) [Compound 232, {[2-Chloro-4-({[3-chloro-4-(difluoro-phosphono-methyl)-benzyl]-indan-1-yl-amino}-methyl)-phenyl]-difluoro-methyl}-phosphonic acid]
100 to 249	COc1ccccc1S(=O)(=O)N(Cc1ccc(-c2ccc(CC#N)cc2)cc1)Cc1ccc(C(F)(F)P(=O)(O)O)c(Cl)c1 [Compound 152, [(2-Chloro-4-{[(4′-cyanomethyl-biphenyl-4-ylmethyl)-(2-methoxy-benzenesulfonyl)-amino]-methyl}-phenyl)-difluoro-methyl]-phosphonic acid]
> 25000	O=C(NS(=O)(=O)C(F)(F)F)c1ccc(CN(Cc2ccc(Cl)c(Cl)c2)S(=O)(=O)c2ccccc2Cl)cc1Br [Compound 95, N-(3-Bromo-4-trifluoromethanesulfonylaminocarbonyl-benzyl)-2-chloro-N-(3,4-dichloro-benzyl)-benzenesulfonamide]
100 to 249	COc1ccccc1S(=O)(=O)N(Cc1ccc(-c2ccc(CO)c(C(=O)O)c2)cc1)Cc1ccc(C(F)(F)P(=O)(O)O)c(Cl)c1 [Compound 200, 5-{4-[({[4-(difluorophosphonomethyl)-3-chlorophenyl]methyl}[(2-methoxyphenyl)sulfonyl]amino)methyl]phenyl}-2-(hydroxymethyl)benzoic acid,trisodium salt]
> 25000	Cc1cc(C=C(C#N)C(=O)Nc2ccc3ccccc3c2)c(C)n1-c1ccc(C(=O)O)cc1 [Compound 58, 4-{3-[2-Cyano-2-(naphthalen-2-ylcarbamoyl)-vinyl]-2,5-dimethyl-pyrrol-1-yl}-benzoic acid]
100 to 249	COc1ccccc1S(=O)(=O)N(Cc1ccc(C(=O)O)cc1)Cc1ccc(C(F)(F)P(=O)(O)O)c(Cl)c1 [Compound 233, 4-{[[3-Chloro-4-(difluoro-phosphono-methyl)-benzyl]-(2-methoxy-benzenesulfonyl)-amino]-methyl}-benzoic acid]

Compound	IC50 [nM]
4-{2-[({[4-(difluorophosphonomethyl)-3-chlorophenyl]methyl}[(2-methoxyphenyl)sulfonyl]amino)methyl]phenyl}benzamide [Compound 199]	< 99
COc1ccccc1S(=O)(=O)N(Cc1ccc(C#N)cc1)Cc1ccc(NC(=O)C(=O)O)cc1 [Compound 118, N-(4-(N-oxalylamino]benzyl)-N-(4-cyanobenzyl)-(2-methoxy)benzenesulfonamide]	> 25000
CC(C)COC(=O)N(Cc1ccc(C(F)(F)P(=O)(O)O)cc1)Cc1ccc(C(F)(F)P(=O)(O)O)cc1 [Compound 61, {[4-({[4-(Difluoro-phosphono-methyl)-benzyl]-isobutoxycarbonyl-amino}-methyl)-phenyl]-difluoro-methyl}-phosphonic acid]	2500 to 25000
{[4-(difluorophosphonomethyl)-3-chlorophenyl]methyl}(cycloheptylmethyl)[(2-methoxyphenyl)sulfonyl]amine [Compound 202]	100 to 249
COc1ccccc1S(=O)(=O)N(Cc1ccc(C(F)(F)P(=O)(O)O)c(Cl)c1)Cc1ccccc1OC(C)C [Compound 211, {[4-(difluorophosphonomethyl)-3-chlorophenyl]methyl}[(2-methoxyphenyl)sulfonyl]{[2-(methylethoxy)phenyl]methyl}amine]	250 to 499
